Measured values as given in US20170152263A1, “Substituted Indazole Compounds as IRAK4 Inhibitors” (AURIGENE DISCOVERY TECHNOLOGIES LIMITED, priority 2014, published 2017).
Where a name gives a salt, the structure may show the parent alone.

Molecular target: T1, recombinant IRAK-4 kinase (Homo sapiens, UniProt Q9NWZ3)
T1 construct: purchased Millipore, USA
T1 sequence (Q9NWZ3 1-460): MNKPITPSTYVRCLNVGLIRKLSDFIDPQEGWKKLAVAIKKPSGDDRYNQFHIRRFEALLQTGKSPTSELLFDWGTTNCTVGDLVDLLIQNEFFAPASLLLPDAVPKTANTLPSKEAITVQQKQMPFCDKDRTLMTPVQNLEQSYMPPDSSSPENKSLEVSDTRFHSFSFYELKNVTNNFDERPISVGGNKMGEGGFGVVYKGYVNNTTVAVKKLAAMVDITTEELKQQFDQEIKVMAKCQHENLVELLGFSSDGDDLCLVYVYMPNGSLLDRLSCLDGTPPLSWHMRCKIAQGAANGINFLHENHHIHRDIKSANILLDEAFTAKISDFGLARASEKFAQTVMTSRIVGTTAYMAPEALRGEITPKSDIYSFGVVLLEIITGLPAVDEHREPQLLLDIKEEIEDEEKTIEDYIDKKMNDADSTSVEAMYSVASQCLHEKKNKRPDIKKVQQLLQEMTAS
Experiment: IRAK-4 biochemical assay (TR-FRET)
Conditions: IRAK-4 enzyme, 20 μM ATP; for inhibition at 0.1 µM: compound at 0.1 μM; for inhibition at 1 µM: compound at 1 μM; for IC50: dose response
Description: Compounds were tested for their potential to inhibit IRAK-4 enzyme in a TR-FRET assay using recombinant IRAK-4 kinase from Millipore, USA. The assay buffer was 50 mM Tris-HCl pH 7.5, 20 mM MgCl2, 1 mM EGTA, 2 mM DTT, 3 mM MnCl2 and 0.01% Tween 20.5 ng of IRAK-4 kinase was used for the assay. After pre-incubation of enzyme with test compound for 30 minutes at room temperature, a substrate mixture containing 100 nM Biotin Histone H3 (Millipore, USA) and 20 μM ATP (Sigma, USA) was added and the reaction was incubated for 30 min. Post incubation, the reaction was stopped by the addition of stop mix containing 40 mM EDTA, 1 nM of Europium-Anti-Phospho-Histone H3 (Ser10) antibody (Perkin Elmer, USA) and 20 nM SureLight Allophycocyanin-Streptavidin (Perkin Elmer, USA). The fluorescence emission at 615 nm and 665 nm were measured at an excitation of 340 nm and the percent inhibition was estimated from the ratio of the fluorescence intensities [(F665/F615)×10000]. […] The IC50 values were estimated by fitting the dose-response data to sigmoidal dose response (variable slope), curve fitting program using Graphpad Prism software Version 6.01.

| Compound | inhibition at 0.1 µM [%] | inhibition at 1 µM [%] | IC50 [nM] |
| --- | --- | --- | --- |
| Cn1ncc2cc(N3CC[C@H](O)C3)c(NC(=O)c3coc(-c4ccnc5[nH]ccc45)n3)cc21 [Example 26, (S)—N—(5-(3-hydroxypyrrolidin-1-yl)-1-methyl-1H-indazol-6-yl)-2-(1H-pyrrolo[2,3-b]pyridin-4-yl)oxazole-4-carboxamide] | 96 | 92 | < 100 |
| Cc1cc(-c2nc(C(=O)Nc3cc4[nH]ncc4cc3N3CC[C@H](O)C3)co2)ccn1 [Example 27, (S)—N—(5-(3-hydroxypyrrolidin-1-yl)-1H-indazol-6-yl)-2-(2-methylpyridin-4-yl)oxazole-4-carboxamide] | 88 | 97 | > 250 |
| Cn1ncc2cc(N3CC[C@H](O)C3)c(NC(=O)c3coc(-c4ccnc(N)c4F)n3)cc21 [Example 28, (S)-2-(2-amino-3-fluoropyridin-4-yl)—N—(5-(3-hydroxypyrrolidin-1-yl)-1-methyl-1H-indazol-6-yl)oxazole-4-carboxamide] | 96 | 98 | < 100 |
| Cn1ncc2cc(N3CC[C@@H](O)C3)c(NC(=O)c3coc(-c4cccnc4N)n3)cc21 [Example 29, (R)-2-(2-aminopyridin-3-yl)—N—(5-(3-hydroxypyrrolidin-1-yl)-1-methyl-1H-indazol-6-yl)oxazole-4-carboxamide hydrochloride] | 14 | 95 | < 100 |
| CN1CCN(c2nc(C(=O)Nc3cc4c(cnn4C)cc3N3CC[C@H](O)C3)co2)CC1 [Example 30, (S)—N—(5-(3-hydroxypyrrolidin-1-yl)-1-methyl-1H-indazol-6-yl)-2-(4-methylpiperazin-1-yl)oxazole-4-carboxamide hydrochloride] | 0 | 20 | – |
| Cn1ncc2cc(N3CC[C@H](O)C3)c(NC(=O)c3coc(N4CCNCC4)n3)cc21 [Example 31, (S)—N—(5-(3-hydroxypyrrolidin-1-yl)-1-methyl-1H-indazol-6-yl)-2-(piperazin-1-yl)oxazole-4-carboxamide hydrochloride] | 0 | 37 | – |
| CCn1ncc2cc(N3CC[C@H](O)C3)c(NC(=O)c3coc(-c4ccnc(C)c4)n3)cc21 [Example 32, (S)—N—(1-ethyl-5-(3-hydroxypyrrolidin-1-yl)-1H-indazol-6-yl)-2-(2-methylpyridin-4-yl)oxazole-4-carboxamide hydrochloride] | 62 | 95 | < 100 |
| Cc1cc(-c2nc(C(=O)Nc3cc4c(cnn4C4CC4)cc3N3CC[C@H](O)C3)co2)ccn1 [Example 33, (S)—N—(1-cyclopropyl-5-(3-hydroxypyrrolidin-1-yl)-1H-indazol-6-yl)-2-(2-methylpyridin-4-yl)oxazole-4-carboxamide hydrochloride] | 25 | 87 | 100 to 250 |
| Cn1ncc2cc(N3CC[C@H](O)C3)c(NC(=O)c3coc(C4=CCNCC4)n3)cc21 [Example 34, (S)—N—(5-(3-hydroxypyrrolidin-1-yl)-1-methyl-1H-indazol-6-yl)-2-(1,2,3,6-tetrahydropyridin-4-yl)oxazole-4-carboxamide hydrochloride] | 0 | 41 | – |
| Cc1nccc(-c2nc(C(=O)Nc3cc4c(cnn4C)cc3N3CC[C@H](O)C3)co2)n1 [Example 35, (S)—N—(5-(3-hydroxypyrrolidin-1-yl)-1-methyl-1H-indazol-6-yl)-2-(2-methylpyrimidin-4-yl)oxazole-4-carboxamide hydrochloride] | 45 | 93 | 100 to 250 |
| Cc1cc(-c2nc(C)c(C(=O)Nc3cc4c(cnn4C)cc3N3CC[C@H](O)C3)o2)ccn1 [Example 36, hydrochloride] | 2 | 1 | – |
| Cn1ncc2cc(N3CC[C@H](O)C3)c(NC(=O)c3coc(C4CCNCC4)n3)cc21 [Example 37, (S)—N—(5-(3-hydroxypyrrolidin-1-yl)-1-methyl-1H-indazol-6-yl)-2-(piperidin-4-yl)oxazole-4-carboxamide hydrochloride] | 0 | 0 | – |
| Cc1cc(-c2nc(C(=O)Nc3cc4c(cnn4C)cc3N3C4CCC3CC(O)C4)co2)ccn1 (stereo not drawn) [Example 38, N—(5-(3-hydroxy-8-azabicyclo[3.2.1]octan-8-yl)-1-methyl-1H-indazol-6-yl)-2-(2-methylpyridin-4-yl)oxazole-4-carboxamide] | 5 | 77 | > 250 |
| Cc1cc(-c2ncc(C(=O)Nc3cc4c(cnn4C)cc3N3CC[C@H](O)C3)o2)ccn1 [Example 39, (S)—N—(5-(3-hydroxypyrrolidin-1-yl)-1-methyl-1H-indazol-6-yl)-2-(2-methylpyridin-4-yl)oxazole-5-carboxamide] | 49 | 92 | 100 to 250 |
| Cc1cc(-c2nc(C(=O)Nc3cc4c(cnn4C)cc3N3CCC(O)(CO)CC3)co2)ccn1 [Example 40, N-(5-(4-hydroxy-4-(hydroxymethyl)piperidin-1-yl)-1-methyl-1H-indazol-6-yl)-2-(2-methylpyridin-4-yl)oxazole-4-carboxamide] | 95 | 98 | < 100 |
| Cc1cc(-c2nc(C(=O)Nc3cc4c(cnn4C)cc3N3CC[C@H](O)C3)c(C)o2)ccn1 [Example 41, (S)—N—(5-(3-hydroxypyrrolidin-1-yl)-1-methyl-1H-indazol-6-yl)-5-methyl-2-(2-methylpyridin-4-yl)oxazole-4-carboxamide hydrochloride] | 0 | 17 | – |
| CCc1cc(-c2nc(C(=O)Nc3cc4c(cnn4C)cc3N3CC[C@H](O)C3)co2)ccn1 [Example 42, (S)-2-(2-ethylpyridin-4-yl)—N—(5-(3-hydroxypyrrolidin-1-yl)-1-methyl-1H-indazol-6-yl)oxazole-4-carboxamide hydrochloride] | 83 | 97 | < 100 |
| Cc1nn(C)c2cc(NC(=O)c3coc(-c4ccnc(N)c4)n3)c(N3CCC(CO)CC3)cc12 [Example 43, 2-(2-aminopyridin-4-yl)—N—(5-(4-(hydroxymethyl)piperidin-1-yl)-1,3-dimethyl-1H-indazol-6-yl)oxazole-4-carboxamide hydrochloride] | 0 | 15 | – |
| Cc1cc(-c2nc(C(=O)Nc3cc4c(cnn4CC4CCNCC4)cc3N3CC[C@H](O)C3)co2)ccn1 [Example 44, (S)—N—(5-(3-hydroxypyrrolidin-1-yl)-1-(piperidin-4-ylmethyl)-1H-indazol-6-yl)-2-(2-methylpyridin-4-yl)oxazole-4-carboxamide hydrochloride] | 0 | 54 | – |
| Cc1cc(-c2nc(C(=O)Nc3cc4c(cc3N3CCC(CO)CC3)c(C)nn4C)co2)ccn1 [Example 45, N—(5-(4-(hydroxymethyl)piperidin-1-yl)-1,3-dimethyl-1H-indazol-6-yl)-2-(2-methylpyridin-4-yl)oxazole-4-carboxamide hydrochloride] | 2 | 12 | – |
